Literature values in patent US20240374634A1, “NUTRACEUTICAL OPHTHALMIC COMPOSITION FOR THE TREATMENT OF RETINAL PATHOLOGIES HAVING A NEOVASCULAR COMPONENT” (Laboratoires THEA, priority 2018, published 2024).

Settings: 300 patients over three years, after a significant increase in DHA in cells

CC/C=C\C/C=C\C/C=C\C/C=C\C/C=C\C/C=C\CCC(=O)O [DHA, Docosahexaenoic acid (DHA)]
reduction in the risks of developing neovascular AMD: 68%
